Data taken from patent US20260055108A1, “TRIAZINE COMPOUNDS AND USES THEREOF” (HUTCHMED LIMITED, priority 2022, published 2026).
Read-outs that look alike come from different tables or passages of the source.

Columns and labels:
[1] = biological target: Recombinant human Menin protein (2-610) / MLL polypeptide binding (Homo sapiens (Human), UniProt O00255); assay: Menin and MLL protein binding at a molecular level (fluorescence polarization method); details: inhibition of Menin / MLL polypeptide binding
From the text: Example 3: Determination of the Activity of the Compounds of the Present Invention on Menin and MLL Protein Binding at a Molecular Level (Fluorescence Polarization Method)
1. Reagents, Materials and Instruments:
• Recombinant human Menin protein (2-610): ChemPartner, CP2021020801; • MLL polypeptide (6-FAM-Ahx-SG-40): GL Biochem, 865700; • Trizma® hydrochloride buffer solution (Tris): Sigma, T2194-1 L; • NaCl: Invitrogen, AM9760G; • TCEP: Sigma, 646547; • DMSO: Sigma, D4540; • 384-well plate: Corning, 4514; • Envision: PerkinElmer.
2. Preparation of Reaction Solutions
• 1) Buffer solution: 20 mL of Tris and 4 mL of NaCl were added respectively to 376 mL of ddH2O, with pH adjusted to 7.5, and TCEP was added before testing with a dilution ratio of 1:500. • 2) 5× test compounds: the test compound was subjected to gradient dilution with the buffer solution to 5-fold the reaction concentration, so that the final concentrations of the compound were 1.000, 0.333, 0.111, 0.037, 0.012, 0.004, 0.001 and 0.0005 μM, respectively. • 3) 2.5× Menin protein reaction solution: the Menin protein was diluted to 5 nM with the buffer solution. • 4) 2.5×MLL polypeptide reaction solution: the MLL polypeptide was diluted to 5 nM with the buffer solution.
1) Binding Reaction (20 μL System)
4 μL of 5× test compound was added to each reaction well of the 384-well plate, and the corresponding volume of 10% DMSO was added to the control wells. Except the control wells, 8 μL of Menin protein reaction solution was added to each well. The reaction solution was incubated at room temperature for 30 minutes, and then 8 μL of MLL polypeptide reaction solution was added to each well. The final concentrations of DMSO in the test compound wells and control wells were all 2%. The 384-well plate was sealed and incubated at room temperature for 30 minutes in the dark.
Three control groups were set up: • a blank control group only containing a buffer solution; • a negative control group only containing MLL polypeptide reaction solution; and • a positive control group containing Menin protein reaction solution and MLL polypeptide reaction solution.
The vertical polarization S value and the horizontal polarization P value (excitation wavelength was 480 nm, and emission wavelength was 535 nm) were measured with Envision.
Corrected S is the S value of the negative control group—the S value of the blank control group
Corrected P is the P value of the negative control group—the P value of the blank control group
(§1) • calculated by using software XL-Fit™ (version 5.3) supplied by ID Business Solutions (Guildford, UK), which is an additional software to Microsoft Excel.

[2] = tested on: MV-4-11 cells (human acute myelogenous leukemia cell line carrying MLL-AF4 mutation); assay: Cell proliferation assay, MV-4-11 (CellTiter-Glo); assay type: cell-based; details: Homo sapiens, MV4-11, 72 h
Experimental: Example 4 Cell Proliferation Assay
MV-4-11 (ATCC, CRL-9591), a human acute myelogenous leukemia cell line carrying MLL-AF4 mutation. Cells were cultured in an IMDM medium containing 10% heat-inactivated fetal bovine serum (HIFBS) and supplemented with 50 μM β-mercaptoethanol.
2. Reagents, Materials and Instruments:
• IMDM culture solution: GIBCO, 12440-053; • HIFBS: GIBCO, 10100-147; • β-mercaptoethanol: Sigma, M3148; • CellTiter-Glo® 2.0 assay kit (CTG): Promega, G9243; • DMSO: Sigma, D4540; • 96-well cell culture plate: Corning, 3903; • Envision: PerkinElmer.
MV-4-11 cells were resuspended in a medium, added to a 96-well plate at a density of 3000 cells/well with a volume of 100 μL/well, and cultured in a cell incubator at 5% CO2 and 37° C. for 4 hours. The test compound subjected to gradient dilution with the medium was added to a cell culture plate, and the final concentrations of the compound were 1.100, 0.367, 0.122, 0.041, 0.014, 0.005, 0.002 and 0.001 μM, respectively. The corresponding volume of DMSO diluent was added to a blank control well, and the final concentrations of DMSO in the experimental group and control group were both 0.1%. The cell plate was placed in a cell incubator at 5% CO2 and 37° C. and cultured for 3 days.
On day 0 and day 3 of the treatment, 50 μL/well CTG reagent was added to the cell plate and shaken at room temperature in the dark for 10 min, and then the chemiluminescence value of each well was measured with Envision.
[formula] • wherein: • luminescence valuetest sample: the chemiluminescence value of a cell well treated with the test compound for 3 days. • luminescence valueday 0: the chemiluminescence value of a cell well at day 0. • luminescence valuecell well: the chemiluminescence value of a cell well not treated with the compound for 3 days.
as §1

[3] = MV-4-11 cells, 3 days treatment, CellTiter-Glo, read-out: GI50

Sequence of Recombinant human Menin protein (2-610) / MLL polypeptide binding (O00255 2-610): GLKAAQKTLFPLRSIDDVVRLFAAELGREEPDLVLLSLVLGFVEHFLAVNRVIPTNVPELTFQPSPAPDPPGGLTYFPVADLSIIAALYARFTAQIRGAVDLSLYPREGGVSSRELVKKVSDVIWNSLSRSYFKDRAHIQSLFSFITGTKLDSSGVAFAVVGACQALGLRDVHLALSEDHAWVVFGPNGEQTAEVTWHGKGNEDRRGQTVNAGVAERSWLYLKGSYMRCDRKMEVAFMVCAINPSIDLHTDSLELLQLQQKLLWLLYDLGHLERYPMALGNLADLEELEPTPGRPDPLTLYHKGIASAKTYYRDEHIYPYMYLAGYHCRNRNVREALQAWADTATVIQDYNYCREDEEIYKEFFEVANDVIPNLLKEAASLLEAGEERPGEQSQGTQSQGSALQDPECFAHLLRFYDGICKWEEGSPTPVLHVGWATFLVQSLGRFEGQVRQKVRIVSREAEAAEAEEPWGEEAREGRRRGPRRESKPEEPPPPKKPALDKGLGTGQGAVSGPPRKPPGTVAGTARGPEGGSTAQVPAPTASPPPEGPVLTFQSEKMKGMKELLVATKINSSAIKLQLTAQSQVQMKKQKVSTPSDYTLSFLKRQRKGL

IC50 [1]	GI50 [2, 3]	SMILES	GI50 [2]
21.6 nM	60 nM	CCN(C(=O)c1cc(F)ccc1Oc1nncnc1N1CC2(CCN(CC3CCN(c4cc5c(nn4)OCCO5)CC3)CC2)C1)C(C)C [Compound 108]	
2.6 nM	3 nM	CCN(C(=O)c1cc(F)ccc1Oc1nncnc1N1CC2(CCN(CC3CCN(c4ccc(C#N)nn4)CC3)CC2)C1)C(C)C [Compound 47]	
212 nM	131 nM	CCN(C(=O)c1cc(F)ccc1Oc1nncnc1N1CC2(CCN(Cc3ccc4c(cc(C(N)=O)n4CCO)c3C)CC2)C1)C(C)C [Compound 158]	
19.8 nM	36 nM	CCN(C(=O)c1cc(F)ccc1Oc1nncnc1N1CC2(CCN(CC3CCN(C(=O)C4(C#N)CC4)CC3)CC2)C1)C(C)C [Compound 12]	
5.4 nM	7 nM	CCN(C(=O)c1cc(F)ccc1Oc1nncnc1N1CC2(CCN(CC3CCN(c4ccc(C#N)cn4)CC3)CC2)C1)C(C)C [Compound 50]	
222 nM		CCN(C(=O)c1cc(F)ccc1Oc1nncnc1N1CC2(CCN(CC3CCN(C4=NN5CCC(=O)N=C5C=C4)CC3)CC2)C1)C(C)C [Compound 83]	
1.7 nM	2 nM	CCN(C(=O)c1cc(F)ccc1Oc1nncnc1N1CC2(CCN(CC3CCN(c4ccc(C(F)(F)F)nn4)CC3)CC2)C1)C(C)C [Compound 38, N-ethyl-5-fluoro-N-isopropyl-2-((5-(7-((1-(6-(trifluoromethyl)pyridazin-3-yl)piperidin-4-yl)methyl)-2,7-diazaspiro[3.5]nonan-2-yl)-1,2,4-triazin-6-yl)oxy)benzamide]	
1.1 nM	2 nM	CCN(C(=O)c1cc(F)ccc1Oc1nncnc1N1CC2(CCN(CC3CCN(c4ccc(Cl)nn4)CC3)CC2)C1)C(C)C [Compound 46]	
57.7 nM	78 nM	CCN(C(=O)c1cc(F)ccc1Oc1nncnc1N1CC2(CCN(CC3CCN(c4ccn(C)n4)CC3)CC2)C1)C(C)C [Compound 79]	
7.4 nM	6 nM	CCN(C(=O)c1cc(F)ccc1Oc1nncnc1N1CC2(CCN(CC3CCN(c4cnnc(OC)c4)CC3)CC2)C1)C(C)C [Compound 109]	
3.1 nM	8 nM	CCN(C(=O)c1cc(F)ccc1Oc1nncnc1N1CC2(CCN(CC3CCN(c4cnc(Cl)nn4)CC3)CC2)C1)C(C)C [Compound 41]	
4.6 nM	16 nM	CCN(C(=O)c1cc(F)ccc1Oc1nncnc1N1CC2(CCN(CC3CCN(C(=O)Nc4ccccc4F)CC3)CC2)C1)C(C)C [Compound 36, 4-((2-(6-(2-(ethyl(isopropyl)carbamoyl)-4-fluorophenoxy)-1,2,4-triazin-5-yl)-2,7-diazaspiro[3.5]nonan-7-yl)methyl)-N-(2-fluorophenyl)piperidine-1-carboxamide]	
> 1000 nM		CCN(C(=O)c1cc(F)ccc1Oc1nncnc1N1CC2(CCN(Cc3ccc4nccn4c3)CC2)C1)C(C)C [Compound 63]	

The remaining lines, values behind:

SMILES	IC50 [1]	GI50 [2, 3]	GI50 [2]
CCN(C(=O)c1cc(F)ccc1Oc1nncnc1N1CC2(CCN(CC3CCN(c4ccnc(OC)c4)CC3)CC2)C1)C(C)C [Compound 114]	2.3 nM	3 nM	
CCNC(=O)c1cc(F)ccc1Oc1nncnc1N1CC2(CCN(CC3CCN(c4cc(OC)c(OC)nn4)CC3)CC2)C1 [Compound 178, 2-((5-(7-((1-(5,6-dimethoxypyridazin-3-yl)piperidin-4-yl)methyl)-2,7-diazaspiro[3.5]nonan-2-yl)-1,2,4-triazin-6-yl)oxy)-N-ethyl-5-fluorobenzamide]	124 nM	126 nM	
C=CC(=O)N1CC(C(=O)N2CCC(CN3CCC4(CC3)CN(c3ncnnc3Oc3ccc(F)cc3C(=O)N(CC)C(C)C)C4)CC2)C1 [Compound 18, 2-((5-(7-((1-(1-acryloylazetidine-3-carbonyl)piperidin-4-yl)methyl)-2,7-diazaspiro[3.5]nonan-2-yl)-1,2,4-triazin-6-yl)oxy)-N-ethyl-5-fluoro-N-isopropylbenzamide]	14.6 nM		12 nM
CCN(C(=O)c1cc(F)ccc1Oc1nncnc1N1CC2(CCN(CC3CCN(C(=O)NC4COC4)CC3)CC2)C1)C(C)C [Compound 33]	2.9 nM	18 nM	
CCN(C(=O)c1cc(F)ccc1Oc1nncnc1N1CC2(CCN(CC3CCN(C(=O)NC(C)C)CC3)CC2)C1)C(C)C [Compound 29]	2.5 nM	15 nM	
CCNC(=O)N1CCC(CN2CCC3(CC2)CN(c2ncnnc2Oc2ccc(F)cc2C(=O)N(CC)C(C)C)C3)CC1 [Compound 28]		9 nM	
CCN(C(=O)c1cc(F)ccc1Oc1nncnc1N1CC2(CCN(CC3CCN(C(=O)C4CC4)CC3)CC2)C1)C(C)C [Compound 1, 2-((5-(7-((1-(cyclopropanecarbonyl)piperidin-4-yl)methyl)-2,7-diazaspiro[3.5]nonan-2-yl)-1,2,4-triazin-6-yl)oxy)-N-ethyl-5-fluoro-N-isopropylbenzamide]	13.6 nM	43 nM	
CCN(C(=O)c1cc(F)ccc1Oc1nncnc1N1CC2(CCN(CC3CCN(c4ccc(OC)nn4)CC3)CC2)C1)C(C)C [Compound 88]	1.1 nM	4 nM	
CCN(C(=O)c1cc(F)ccc1Oc1nncnc1N1CC2(CCN(CC3CCN(C(=O)NC4CCC4)CC3)CC2)C1)C(C)C [Compound 32]	1 nM	4 nM	
CCN(C(=O)c1cc(F)ccc1Oc1nncnc1N1CC2(CCN(CC3CCN(c4ccc(=O)n(C)n4)CC3)CC2)C1)C(C)C [Compound 81]	54.9 nM	117 nM	
CCN(C(=O)c1cc(F)ccc1Oc1nncnc1N1CC2(CCN(CC3CCN(c4ccc5nccn5n4)CC3)CC2)C1)C(C)C [Compound 43]	6.4 nM	13 nM	
CCN(C(=O)c1cc(F)ccc1Oc1nncnc1N1CC2(CCN(CC3CCN(c4cc(OC)cnn4)CC3)CC2)C1)C(C)C [Compound 89]	2.8 nM	4 nM	
CCN(C(=O)c1cc(F)ccc1Oc1nncnc1N1CC2(CCN(CC3CCN(c4ccc(C5CC5)nn4)CC3)CC2)C1)C(C)C [Compound 44]	4.3 nM	14 nM	
CCN(C(=O)c1cc(F)ccc1Oc1nncnc1N1CC2(CCN(CC3CCN(C(=O)C4CC(F)(F)C4)CC3)CC2)C1)C(C)C [Compound 6]	6.7 nM	13 nM	
COc1cc(N2CCC(CN3CCC4(CC3)CN(c3ncnnc3Oc3ccc(F)c5nn(C(C)C)cc35)C4)CC2)nnc1OC [Compound 105]	483 nM		
CCN(C(=O)c1cc(F)ccc1Oc1nncnc1N1CC2(CCN(Cc3ccc4[nH]c(C(=O)NC)cc4c3)CC2)C1)C(C)C [Compound 65]	83.9 nM		
CCN(C(=O)c1cc(F)ccc1Oc1nncnc1N1CC2(CCN(CC3CCN(C(=O)C4(C(=O)N(C)C)CC4)CC3)CC2)C1)C(C)C [Compound 19, 2-((5-(7-((1-(1-(dimethylcarbamoyl)cyclopropane-1-carbonyl)piperidin-4-yl)methyl)-2,7-diazaspiro[3.5]nonan-2-yl)-1,2,4-triazin-6-yl)oxy)-N-ethyl-5-fluoro-N-isopropylbenzamide]			667 nM
